Measured values reported in article PMC2842125 (Journal of medicinal chemistry, 2010).

Experiments:
[1] = target: T1, SHP2 (Homo sapiens, UniProt Q06124); experiment: SHP2-catalyzed pNPP hydrolysis inhibition; type: biochemical; details: ratio of IC50 values
T1 sequence (Q06124 262-528): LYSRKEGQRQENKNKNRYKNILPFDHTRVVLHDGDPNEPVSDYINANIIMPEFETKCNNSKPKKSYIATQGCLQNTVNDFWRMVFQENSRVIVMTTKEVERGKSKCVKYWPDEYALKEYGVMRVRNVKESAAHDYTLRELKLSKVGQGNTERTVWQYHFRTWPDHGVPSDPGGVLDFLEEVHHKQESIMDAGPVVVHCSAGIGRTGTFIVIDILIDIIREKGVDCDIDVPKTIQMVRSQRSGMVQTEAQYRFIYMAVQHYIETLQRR

[2] = test system: HEK293 cells; experiment: EGF-stimulated ERK1/2 activation, phospho-ERK1/2 immunoblot

Q: What does the source list for `Cn1c(-c2ccccc2)c(-c2cn(CCC(=O)Nc3ccccc3)nn2)c2cc(C(=O)O)c(O)cc21` [Compound 14, 6-Hydroxy-1-methyl-3-(1-(3-oxo-3-(phenylamino)propyl)-1H-1,2,3-triazol-4yl)-2-phenyl-1H-indole-5-carboxylic acid]?
A: fold change of SHP2 IC50 relative to 9 [1]: 15.6 fold; pERK1/2 level normalized by total ERK1/2 ([2]; 20 μM, EGF stimulation 60 min): no appreciable change

Q: Which “fold change of SHP2 IC50 relative to 9” value [1] does the source give for `Cn1c(-c2ccccc2)c(-c2cn(CCCC(=O)Nc3ccc(-c4ccccc4)cc3)nn2)c2cc(C(=O)O)c(O)cc21` [Compound 9b, 3-(1-(4-(biphenyl-4-ylamino)-4-oxobutyl)-1H-1,2,3-triazol-4-yl)-6-hydroxy-1-methyl-2-phenyl-1H-indole-5-carboxylic acid] here?
A: ~2 fold

Q: `Cn1c(-c2ccccc2)c(-c2cn(CCC(=O)Nc3ccc(-c4ccccc4)cc3)nn2)c2cc(C(=O)O)c(O)cc21` [Compound 9, 3-(1-(3-(biphenyl-4-ylamino)-3-oxopropyl)-1H-1,2,3-triazol-4-yl)-6-hydroxy-1-methyl-2-phenyl-1H-indole-5-carboxylic acid] was tested. Which “EGF-induced ERK1/2 activation, dose dependence” value ([2]; 0 to 20 μM, EGF stimulation 60 min) did it give?
A: concentration-dependent inhibition

Q: And the “initial transient phase of ERK1/2 activation (phospho-ERK1/2)” value ([2]; 10 μM, 3 h pre-incubation, 5-15 min post EGF 2 ng/mL)?
A: not the initial transient phase

Q: And the “sustained phase of ERK1/2 activation (phospho-ERK1/2)” value ([2]; 10 μM, 3 h pre-incubation, 60 min post EGF 2 ng/mL)?
A: strongly inhibits

Q: `Cn1c(-c2ccccc2)c(-c2cn(CC(=O)Nc3ccc(-c4ccccc4)cc3)nn2)c2cc(C(=O)O)c(O)cc21` [Compound 9a, 3-(1-(2-(Biphenyl-4-ylamino)-2-oxoethyl)-1H-1,2,3-triazol-4-yl)-6-hydroxy-1-methyl-2-phenyl-1H-indole-5-carboxylic acid] was tested. Which “fold change of SHP2 IC50 relative to 9” value [1] did it give?
A: ~2 fold
